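GI50 is the concentration that inhibits growth by half. TGI marks complete inhibition of growth.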
Experiments:
Test in all cases: NCI anticancer screen, dose series, 384-well format
[1] = tested on: CAKI-1 renal
[2] = tested on: HOP-62 NSCLC
[3] = tested on: HS 578T breast
[4] = tested on: MALME-3M melanoma
[5] = tested on: MDA-MB-435 melanoma
[6] = tested on: NCI-H522 lung
[7] = tested on: RPMI-8226 leukemia
[8] = tested on: SF-268 CNS
[9] = tested on: SK-MEL-28 melanoma
[10] = tested on: SNB-75 CNS
[11] = tested on: SW-620 colon
[12] = tested on: TK-10 renal
[13] = tested on: UO-31 renal

Row | Compound | GI50 [1] | TGI [1] | GI50 [2] | TGI [2] | GI50 [3] | TGI [3] | GI50 [4] | TGI [4] | GI50 [5] | TGI [5] | GI50 [6] | TGI [6] | GI50 [7] | TGI [7] | GI50 [8] | TGI [8] | GI50 [9] | TGI [9] | GI50 [10] | TGI [10] | other results
1 | CN1C(=O)[C@@H](CC2CCCC2)N(C2CCCC2)c2nc(Nc3cc(Cl)c(O)c(Cl)c3)ncc21 | 3.95 µM | 22.2 µM | 12.1 µM | 33.1 µM | 3.04 µM | 23.4 µM | 4.41 µM | 29.9 µM | 7.55 µM | > 100 µM | 2.6 µM | 8.91 µM | 1.8 µM | 4.17 µM | 11.2 µM | 70 µM | 4.79 µM | > 100 µM | 6.35 µM | 49 µM | GI50 [11]: 7.08 µM; TGI [11]: 40.7 µM; GI50 [12]: 3.69 µM; TGI [12]: 20.1 µM; GI50 [13]: 4.75 µM; TGI [13]: 23.2 µM
2 | Cc1c(Br)c(Br)c2c3c1nc(N1CCNCC1)n3CCC2 | 1.59 µM | 2.99 µM | 1.72 µM | 3.57 µM | 1.87 µM | 3.28 µM | 1.42 µM | 2.73 µM | 1.85 µM | 3.27 µM | 0.347 µM | 1.8 µM | 0.81 µM | 2.27 µM | 1.33 µM | 2.65 µM | 1.59 µM | 2.95 µM | 1.97 µM | 3.4 µM | GI50 [11]: 1.25 µM; TGI [11]: 2.51 µM; GI50 [12]: 1.51 µM; TGI [12]: 2.88 µM; GI50 [13]: 1.45 µM; TGI [13]: 2.78 µM
